Experimental data taken from article PMC2844090 (Journal of medicinal chemistry, 2009).

Assays:
[1] = target: T1, human kynurenine aminotransferase I (hKAT I) (Homo sapiens, UniProt Q16773); test: co-crystal structure at […] Å; type: binding
T1 sequence (Q16773 1-422): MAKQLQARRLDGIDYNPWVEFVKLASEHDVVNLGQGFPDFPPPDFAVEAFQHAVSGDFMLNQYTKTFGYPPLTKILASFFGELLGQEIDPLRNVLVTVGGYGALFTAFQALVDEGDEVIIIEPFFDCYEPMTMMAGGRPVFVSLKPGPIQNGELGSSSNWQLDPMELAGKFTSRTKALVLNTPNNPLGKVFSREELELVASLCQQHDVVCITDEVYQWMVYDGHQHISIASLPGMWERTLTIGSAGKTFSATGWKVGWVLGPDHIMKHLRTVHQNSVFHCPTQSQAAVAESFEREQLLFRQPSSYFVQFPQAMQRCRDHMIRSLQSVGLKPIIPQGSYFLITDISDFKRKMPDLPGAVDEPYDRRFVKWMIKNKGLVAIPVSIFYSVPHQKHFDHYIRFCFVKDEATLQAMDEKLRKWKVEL

[2] = target: T1, human kynurenine aminotransferase I (hKAT I); test: transamination assay, HPLC of KYNA; type: biochemical
[3] = target: T1, human kynurenine aminotransferase I (hKAT I); test: transamination assay, HPLC of KYNA; type: biochemical; remark: listed apart in the source

Row | Compound | transamination assay, HPLC of KYNA (0.08-10 mM); competing substrate [2] | other results
1 | NC(CO)(CO)CO [Tris] |  | co-crystal structure at 1.50 Å (one of two subunits) [1]: Tris lies near the PLP cofactor and that the Tris amine does not form an external aldimine with PLP
2 | O=C(O)C(=O)Cc1c[nH]c2ccccc12 [indole-3-pyruvic acid] | Figure 6B shows the inhibitions of tryptophan and indole-3-pyruvic acid | 
3 | O=C(O)/C=C/c1c[nH]c2ccccc12 [trans-3-indoleacrylic acid] |  | transamination assay, HPLC of KYNA (0.08-10 mM) [3]: All six of the chemicals strongly inhibited hKAT I
4 | N[C@@H](Cc1c[nH]c2ccccc12)C(=O)O [tryptophan] | Figure 6B shows the inhibitions of tryptophan and indole-3-pyruvic acid | 
